{"source": "paper PMC12844998", "about": "“Bridging the Knowledge Gap in Harmaline’s Pharmacological Properties: A Focus on Thermodynamics and Kinetics” (Pharmaceutics, 2025)", "key": {"MDCK cells": {"system": "MDCK cells", "assay": "Literature permeability across MDCK cells", "assay_type": "in vitro ADME", "conditions": "literature MDCK (ref 12) vs PP Papp"}, "[1]": {"conditions": "undefined temperature, cited from earlier work"}, "[2]": {"assay": "Permeability in Franz diffusion cell, PermeaPad barrier", "assay_type": "in vitro ADME", "procedure": "(§1) Permeability coefficients were measured in a vertical type Franz diffusion cell (PermeGear, Inc., Hellertown, PA, USA) maintained at 37 °C, with an effective diffusion area of 0.785 cm^2. The volumes of the donor (lower) and the acceptor (upper) compartments were 7 mL and 2 mL, respectively. Three artificial membranes were used in the study: Regenerated cellulose (RC): Standard Grade RC Dialysis Membrane with a molecular weight cut-off (MWCO) of 12–14 kDa and a flat width of 45 mm; PermeaPad barrier (PP): A commercially available barrier (PHABIOC, Fritz-Souchon-Str. 27, 32339 Espelkamp, Germany; www.innome.de), originally proposed by di Cagno et al.; Polydimethylsiloxane-polycarbonate membrane (PDS): A “Carbosil” membrane composed of 55% polydimethylsiloxane and 45% polycarbonate (PENTAMED, Moscow, Russia; https://medpolymer.ru/).\n(§2) A solution of HML in pH 7.4 (7 mL) was placed into the donor chamber of a Franz cell. The acceptor compartment was filled with pure buffer pH 7.4 (1 mL). Over a period of 5 h, 0.5 mL samples were withdrawn from the acceptor compartment at 30 min intervals and replaced with an equal volume of fresh pH 7.4 buffer. The sample concentrations were determined by UV-Vis spectroscopy (Cary-50, Varian, Palo Alto, CA, USA; Software Version 3.00 (339)) or by HPLC (for experiments involving the polydimethylsiloxane-polycarbonate membrane). The cumulative amount of drug permeated through the membrane was plotted as a function of time. The flux was determined from the slope of the linear portion of each curve. The permeability coefficient was calculated using the following equation:(4) Papp=J/C0 where J is the flux, and C0 is the concentration of HML in the donor solution. A reverse dialysis setup was employed, where the lower chamber served as the donor compartment and was filled with the drug solution. Sink conditions were maintained in all experiments, meaning the drug concentration in the acceptor compartment never exceeded 10% of its concentration in the donor compartment at any time according the recommendations proposed in [18]."}, "[3]": {"assay": "Permeability in Franz diffusion cell, regenerated cellulose membrane", "assay_type": "in vitro ADME", "conditions": "RC membrane, pH 7.4, 310.15 K", "procedure": "as §1, §2"}, "Caco-2 monolayers": {"system": "Caco-2 monolayers", "assay": "Literature permeability across Caco-2 monolayers", "assay_type": "in vitro ADME", "conditions": "literature Caco-2 (ref 12) vs PP Papp"}, "[4]": {"assay": "Kinetics of distribution in OctOH/pH 7.4 and IPM/pH 7.4 (1-5 h)", "assay_type": "physicochemical", "procedure": "Distribution coefficients were measured at 1, 2, 3, 4, and 5 h in OctOH/pH 7.4 and IPM/pH 7.4 at 310.15 K to assess the kinetics of HML distribution."}, "[5]": {"assay": "Dissolution thermodynamics from van't Hoff plots of solubility", "assay_type": "physicochemical", "from_the_text": "The calculation of the thermodynamic parameters for the solubility and distribution processes was based on component concentrations expressed in terms of mole fractions. The standard calculation procedure and the respective equations are presented in the Supplementary Materials (Section S4)."}}, "note": "Entries after “also recorded” stand apart in the source; their conditions may differ. Read-outs that look alike come from different tables or passages of the source.", "data": [{"smiles": "COc1ccc2c3c([nH]c2c1)C(C)=NCC3", "note": "[HML, Harmaline]", "values": [{"measurement": "MDCK permeability coefficient, fold lower than PermeaPad result", "setting": "MDCK cells", "result": "up to 2.3 fold"}, {"measurement": "distribution coefficient n-heptane/aqueous (pH 7.4)", "setting": "[1]; ref 19", "result": 0.05}, {"measurement": "distribution coefficient n-heptane/aqueous (pH 7.4)", "setting": "[1]; ref 20", "result": 0.11}, {"measurement": "logPapp", "setting": "[2]; PP barrier, pH 7.4, 310.15 K", "result": "−4.43"}, {"measurement": "steady state flux J", "setting": "[2]; PP barrier, pH 7.4, 310.15 K, C0 2.23 × 10^−3 M", "result": "8.28 × 10^−5 µmol∙cm^−2∙s^−1"}, {"measurement": "Papp at 5 h", "setting": "[2]; PP barrier, pH 7.4, 310.15 K, read-out: permeability coefficient Papp", "result": 37.1, "unit": "×10⁻⁶ cm/s"}, {"measurement": "permeability classification (Di Cagno et al.)", "setting": "[2]; PP barrier, high permeability if Papp > 2.04∙10^−5 cm∙s^−1", "result": "highly permeable; also recorded: high permeated substance"}, {"measurement": "permeability coefficient for PP, fold lower than for RC", "setting": "[2]; pH 7.4, 310.15 K", "result": 1.3, "unit": "fold"}, {"measurement": "logPapp", "setting": "[3]", "result": "−4.31"}, {"measurement": "steady state flux J", "setting": "[3]; C0 2.11 × 10^−3 M", "result": "1.04 × 10^−4 µmol∙cm^−2∙s^−1"}, {"measurement": "Papp at 5 h", "setting": "[3]; read-out: permeability coefficient Papp", "result": 49.3, "unit": "×10⁻⁶ cm/s"}, {"measurement": "maximum difference between Caco-2 model permeability and PermeaPad result", "setting": "Caco-2 monolayers", "result": "≤ 1.4", "unit": "fold"}, {"measurement": "fold-change between saturation and 5 h distribution coefficients", "setting": "[4]; IPM/pH 7.4, 310.15 K", "result": 1.36, "unit": "fold"}, {"measurement": "increase of distribution from 1 to 5 h", "setting": "[4]; IPM/pH 7.4, 310.15 K", "result": 1.3, "unit": "fold"}, {"measurement": "fold-change between saturation and 5 h distribution coefficients", "setting": "[4]; OctOH/pH 7.4, 310.15 K", "result": 1.38, "unit": "fold"}, {"measurement": "increase of distribution from 1 to 5 h", "setting": "[4]; OctOH/pH 7.4, 310.15 K", "result": 1.2, "unit": "fold"}, {"measurement": "Gibbs energy of solution ΔGsol0", "setting": "[5]; Hex, 298.15 K", "result": 6.84, "unit": "kcal/mol"}, {"measurement": "enthalpy share of the total free energy change of dissolution", "setting": "[5]; Hex, 298.15 K", "result": 84, "unit": "%"}, {"measurement": "entropy share of the total free energy change of dissolution", "setting": "[5]; Hex, 298.15 K", "result": 16, "unit": "%"}, {"measurement": "Gibbs energy of solution ΔGsol0", "setting": "[5]; OctOH, 298.15 K", "result": 2.89, "unit": "kcal/mol"}, {"measurement": "Gibbs energy of solution ΔGsol0", "setting": "[5]; pH 7.4, 298.15 K", "result": 5.66, "unit": "kcal/mol"}, {"measurement": "log partition 1-octanol / buffer pH 7.4", "setting": "shake-flask; pH 7.4, 293.15", "result": 0.973, "unit": "log10"}, {"measurement": "log partition n-hexane / buffer pH 7.4", "setting": "shake-flask; pH 7.4, 293.15", "result": "−1.929", "unit": "log10"}, {"measurement": "log partition 1-octanol / buffer pH 7.4", "setting": "shake-flask; pH 7.4, 298.15", "result": 1.016, "unit": "log10"}, {"measurement": "log partition n-hexane / buffer pH 7.4", "setting": "shake-flask; pH 7.4, 298.15", "result": "−1.899", "unit": "log10"}, {"measurement": "log partition 1-octanol / buffer pH 7.4", "setting": "shake-flask; pH 7.4, 303.15", "result": 1.066, "unit": "log10"}, {"measurement": "log partition n-hexane / buffer pH 7.4", "setting": "shake-flask; pH 7.4, 303.15", "result": "−1.833", "unit": "log10"}, {"measurement": "log partition 1-octanol / buffer pH 7.4", "setting": "shake-flask; pH 7.4, 308.15", "result": 1.165, "unit": "log10"}, {"measurement": "log partition n-hexane / buffer pH 7.4", "setting": "shake-flask; pH 7.4, 308.15", "result": "−1.765", "unit": "log10"}, {"measurement": "log partition 1-octanol / buffer pH 7.4", "setting": "shake-flask; pH 7.4, 310.15", "result": 1.290, "unit": "log10"}, {"measurement": "log partition isopropyl myristate / buffer pH 7.4", "setting": "shake-flask; pH 7.4, 310.15", "result": "−0.602", "unit": "log10"}, {"measurement": "log partition n-hexane / buffer pH 7.4", "setting": "shake-flask; pH 7.4, 310.15", "result": "−1.658", "unit": "log10"}, {"measurement": "log partition 1-octanol / buffer pH 7.4", "setting": "shake-flask; pH 7.4, 313.15", "result": 1.345, "unit": "log10"}, {"measurement": "log partition n-hexane / buffer pH 7.4", "setting": "shake-flask; pH 7.4, 313.15", "result": "−1.605", "unit": "log10"}]}]}
